According to patent publication US8697692B2, “Pyrrolo [3,2-c] pyridine-4-one 2-indolinone protein kinase inhibitors” (Shanghai Hengrui Pharmaceutical Co., Ltd., priority 2006, dated 2014):

Experiments:
HUVEC cell = assay: Cell Proliferation Inhibition VEGF-R2 Assay (SRB method); assay type: cell-based, homo sapient; details: Homo sapiens; HUVEC cells, 72 hours exposure, Sulforhodamine B; read-out: IC50 (VEGFR/HUVEC)
Source text: The following in vitro assay may be used to determine the level of activity and effect of different compounds of the present invention on the proliferation inhibition (cell toxic) of endothelium growth factor receptor (VEGFR) high expressing homo […] cancer cell-HUVEC cell. The cellular assay described here measure the compounds of their anti-angiogenesis and proliferation inhibition activity and effect through […] on the cancer cells in vitro. The effect and activity is represented by the IC50 value that kills the cancer cell. […] The homo […] highly express […] are chosen and seeded to 96-well cell culture plate at a suitable concentration (exp 5000 cells/ml medium). The cells then are cultured in carbon dioxide (CO2) incubator till when they confluence to about 85%. Then, the cell culture medium is replaced by fresh one with tested compounds added in it at serial concentrations (general 6 to 7 concentrations). Then the cells are put back to the culture and cultured for continuous 72 hours. 72 hours later, the cell exposed to compounds and control cell are assayed for their proliferation using Sulforhodamine B (SRB) method. […] Dimethyl sulfoxide (Sinophma chemical reagent company, catalog No. T20050806) • b. HUVEC cells (Purchased from Institute of biochemistry and cell biology) • c. […] Acetic Acid (Sinophma chemical reagent company, Catalog No. T20060508) • l. Trichloroacetic Acid (Sinophma chemical reagent company, Catalog No. T20060305) • m. […] Class II A/B3 Biological safety cabinet (ThermoForma Catalog No. HB0053-03) • o. […] Centrifuge (Fisher Scientific Marathon 8 k, Catalog No. 0027-02) • q. Novastar Plate reader (BMG Labtech, Catalog No. 700-0081) • r. […] Growing seeded 96-well plates at 37° C., 5% CO2, till 85% confluence. • 4. Prepare compounds stock solution, using DMSO solve candidate compounds to a concentration of 20 mM. […] Use cell culture medium (in this case, DMEM/F12+10% FBS) to dilute the compounds solution prepared above. Each DMSO serial concentration compound solution is diluted by 20 times with culture medium by adding 5 μl DMSO compound solution to 95 μl culture medium, then mix well by vortex. […] After HUVEC cell has attached to the dish bottom and confluence about 85%, change the culture medium with fresh DMEM/F12 plus 10% FBS. Each well added 180 μl medium, then add 20 μl medium solution of tested compounds prepared at step 5 to each well. For control group cell, add 20 μl culture medium containing 0.5% pure DMSO. […] Each 96-well plate, we can test 3 compounds with a control cell group. • 7. Put the culture plates back to incubator, culture for 72 hours at 37° C., 5% CO2. • 8. 72 hours later, remove cultures from incubator into sterile work area. • 9. Prepare fixative (50% Trichloroacetic Acid-TCA) by adding reagent grade water to the TCA, fix the cells by gently layering 50 μl of cold TCA solution on top of the growth medium. • 10. Incubate plates for 1 hour at 4° C. and then rinse with water several times to remove TCA, serum proteins, etc. Plates are air dried and stored until use. Bland background optical density is measured in wells incubated with growth medium without cells. • 11. Use 10% acetic acid solution to prepare 0.4% Sulforhodamine B solution. Add 50 μl sulforhodamine B solution to each well of 96-well plates. • 12. Allow cells to stain for 30 minutes. • 13. Prepared the wash solution of […] acetic acid. At the end of the staining period, the stain is removed and the cells rinsed quickly with 1% acetic acid. Repeat until unincorporated dye is removed. Keep wash times to a minimum to reduce desorption of protein-bound dye. After being rinsed, the cultures are air dried until no moisture is visible. • 14. The incorporated dye is then solubilized in a volume of Sulforhodamine B assay Solubilization solution (10 mM Tris) equal to the original volume of culture medium. Allow cultures to stand for 5 minutes at room temperature.

A431 cell = assay: Cell Proliferation Inhibition EGFR Assay (SRB method); assay type: cell-based, homo sapient; details: Homo sapiens, A-431; A431 cells, 72 hours exposure, Sulforhodamine B; read-out: IC50 (A431)
Source text: The following in vitro assay may be used to determine the level of activity and effect of different compounds of the present invention on the proliferation inhibition (cell toxic) of […] growth factor receptor (EGFR) high expressing homo […] cancer cell-A431 cell. The cellular assay described here measure the compounds of their anti-angiogenesis and proliferation inhibition activity and effect through EGFR on the cancer cells in vitro. The effect and activity is represented by the IC50 value that kills the cancer cell. […] The homo […] highly express EGFR are chosen and seeded to 96-well cell culture plate at a suitable concentration (exp 5000 cells/ml medium). The cells then are cultured in carbon dioxide (CO2) incubator till when they confluence to about 85%. Then, the cell culture medium is replaced by fresh one with tested compounds added in it at serial concentrations (general 6 to 7 concentrations). Then the cells are put back to the culture and cultured for continuous 72 hours. 72 hours later, the cell exposed to compounds and control cell are assayed for their proliferation using Sulforhodamine B (SRB) method. Compounds IC50 on tested cells are calculated by the data of inhibition rates of serial concentrations of the tested compounds. • a. Dimethyl sulfoxide (Sinophma chemical reagent company, catalog No. T20050806) • b. A431 cells (Purchased from Institute of biochemistry and cell biology) • c. Falcon 100 mm cell culture plates (Baton Dickison Labware, Baton Dickison and company, • Catalog No. 18677) • d. coming 96-well culture cluster (Corning Incorporated, Catalog No. 3599) • e. Fisher Pipette (Fisher scientific, Catalog No. 03-692-164) • f. DMEM/F12 cell medium (Gibco, Catalog No. 12400-024) • g. Fetal bovine serum, origin from Australia (Gibco, Catalog No. 10099-141) • h. […] Sulforhodamine B (Sigma, Catalog No. 3520-42-1) • k. Acetic Acid (Sinophma chemical reagent company, Catalog No. T20060508) • l. Trichloroacetic Acid (Sinophma chemical reagent company, Catalog No. T20060305) • m. Tris base (Amresco, Catalog No. 0826) • n. Class II A/B3 Biological safety cabinet (ThermoForma Catalog No. HB0053 03) • o. Series II water jacketed CO2 incubator (ThermoForma Model: 3111) • p. Centrifuge (Fisher Scientific Marathon 8 k, Catalog No. 0027-02) • q. Novastar Plate reader (BMG Labtech, Catalog No. 700 0081) • r. Orbital Shaker (Qilinbeier, Catalog No. TS-1) Protocol: […] Growing seeded 96-well plates at 37° C., 5% CO2, till 85% confluence. • 4. Prepare compounds stock solution, using DMSO solve candidate compounds to a concentration of 20 mM. […] Use cell culture medium (in this case, DMEM/F12+10% FBS) to dilute the compounds solution prepared above. Each DMSO serial concentration compound solution is diluted by 20 times with culture medium by adding 5 μl DMSO compound solution to 95 μl culture medium, then mix well by vortex. This promise that the DMSO concentration at that the A431 cell will exposed to will not surpass 0.5%. • 6. […] Each well added 180 μl medium, then add 20 μl medium solution of tested compounds prepared at step 5 to each well. For control group cell, add 20 μl culture medium containing 0.5% pure DMSO. […] Each 96-well plate, we can test 3 compounds with a control cell group. • 7. Put the culture plates back to incubator, culture for 72 hours at 37° C., 5% CO2. • 8. 72 hours later, remove cultures from incubator into sterile work area. • 9. Prepare fixative (50% Trichloroacetic Acid-TCA) by adding reagent grade water to the TCA, fix the cells by gently layering […] of cold TCA solution on top of the growth medium. • 10. Incubate plates for 1 hour at 4° C. and then rinse with water several times to remove TCA, serum proteins, etc. Plates are air dried and stored until use. Bland background optical density is measured in wells incubated with growth medium without cells. • 11. Use 10% acetic acid solution to prepare 0.4% Sulforhodamine B solution. Add 50 μl sulforhodamine B solution to each well of 96-well plates. • 12. […]

| SMILES | IC50 (A431 cell) [µM] | IC50 (HUVEC cell) [µM] |
| --- | --- | --- |
| CCN(CC)CCN1CCc2[nH]c(/C=C3\C(=O)Nc4c(N)cc(F)cc43)c(C)c2C1=O [Example 4] | 12.6 | 3.6 |
| Cc1c(/C=C2\C(=O)Nc3cc(N)c(F)cc32)[nH]c2c1C(=O)N(CCN1CCCC1)CC2 [Example 14, 2-(6-Amino-5-fluoro-2-oxo-1,2-dihydro-indol-3-ylidenemethyl)-3-methyl-5-(2-pyrrolidin-1-yl-ethyl)-1,5,6,7-tetrahydro-pyrrolo[3,2-c]pyridin-4-one] | 10.7 | 1.05 |
| CCN(CC)CCN1CCc2[nH]c(/C=C3\C(=O)Nc4c(NC=O)cc(F)cc43)c(C)c2C1=O [Example 5, N-{3-[5-(2-Diethylamino-ethyl)-3-methyl-4-oxo-4,5,6,7-tetrahydro-1H-pyrrolo[3,2-c]pyridine-2-ylmethylene]-5-fluoro-2-oxo-2,3-dihydro-1H-indol-7-yl}-formamide] | 1.38 | 10.5 |
| CCN(CC)CCN1CCc2[nH]c(/C=C3\C(=O)Nc4cc(NC=O)c(F)cc43)c(C)c2C1=O [Example 8, N-{3-[5-(2-Diethylamino-ethyl)-3-methyl-4-oxo-4,5,6,7-tetrahydro-1H-pyrrolo[3,2-c]pyridine-2-ylmethylene]-5-fluoro-2-oxo-2,3-dihydro-1,1-indol-6-yl}-formamide] | 0.37 | 3.14 |

More lines, in order of falling IC50 (A431 cell), values ahead:

| IC50 (A431 cell) [µM] | SMILES | IC50 (HUVEC cell) [µM] |
| --- | --- | --- |
| 10.5 | CCN(CC)CCN1CCc2[nH]c(/C=C3\C(=O)Nc4cc(N)c(F)cc43)c(C)c2C1=O [Example 7, 2-(6-Amino-5-fluoro-2-oxo-1,2-dihydro-indol-3-ylidenemethyl)-5-(2-diethylamino-ethyl)-3-methyl-1,5,6,7-tetrahydro-pyrrolo[3,2-c]pyridin-4-one] | 1.38 |
| 9.29 | CCN(CC)CCN1CCc2[nH]c(/C=C3\C(=O)Nc4cc(NC(C)=O)c(F)cc43)c(C)c2C1=O [Example 9, N-{3-[5-(2-Diethylamino-ethyl)-3-methyl-4-oxo-4,5,6,7-tetrahydro-pyrrolo[3,2-c]pyridine-2-ylmethylene]-5-fluoro-2-oxo-2,3-dihydro-1H-indol-6-yl}-acetamide] | 5.8 |
| 3.89 | CCN(CC)CCN1CCc2[nH]c(/C=C3\C(=O)Nc4ccc(-c5ccc(OC)cc5)cc43)c(C)c2C1=O [Example 38, 5-(2-Diethylamino-ethyl)-2-[5-(4-methoxy-phenyl)-2-oxo-1,2-dihydro-indol-3-ylidenemethyl)-3-methyl-1,5,6,7-tetrahydro-pyrrolo[3,2-c]pyridin-4-one] | 1.28 |
| 0.84 | CCN(CC)CCN1CCc2[nH]c(/C=C3\C(=O)Nc4ccc(NC=O)cc43)c(C)c2C1=O [Example 33, N-{3-[5-(2-Diethylamino-ethyl)-3-methyl-4-oxo-4,5,6,7-tetrahydro-1H-pyrrolo[3,2-c]pyridine-2-ylmethylene]-2-oxo-2,3-dihydro-1H-indol-5-yl}-formamide] | 0.67 |
